Data published in patent US11660311B2, “Cyclic dinucleotides as anticancer agents” (priority 2017, dated 2023).
Like-named read-outs stand apart in the source and are kept apart here.

How the values were obtained:
[1] = tested on: NF-κB pathway in THP1-Dual STING reporter cells; assay: STING THP1 Reporter Assay, NF-κB pathway (SEAP); format: cell-based, human; details: 100% = 100 μM cGAMP
From the text: (§1) THP1-Dual™ cells were derived from the human THP-1 monocyte cell line by stable integration of two inducible reporter constructs. To this end, THP1-Dual™ cells allow the simultaneous study of the NF-κB pathway, by monitoring the activity of SEAP, and the IRF pathway by assessing the activity of a secreted luciferase (Lucia). Both reporter proteins are readily measurable in the cell culture supernatant when using QUANTI-Blue™, a SEAP detection reagent, and QUANTI-Luc™, a luciferase detection reagent.
(§2) THP1-Dual™ cells induce the activation of NF-κB in response to STING agonists. They also trigger the IRF pathway upon stimulation with STING agonists, such as cGAMP. Here, the THP-1-Dual cells were used to assess STING binders for function on the cellular level.
(§3) Serial dilutions of compounds in DMSO were added to low volume 384 well plates at 100 nl/well using an ECHO acoustic dispenser (Labcyte, model 550) to achieve final starting concentration of 100 μM in cell suspension. […] One column of the plate was reserved for treatment with cGAMP at 100 μM for 100% activation calculation and one column for no treatment (DMSO only) for baseline activation. Plates were then incubated in 37° C. incubator at 5% CO2 for 20 hours.
(§4) In the SEAP assay, 5 μl of 2× QuantiBlue (Invivogen, cat #Rep-qb2) is added to 384 well black plates seeded with THP1 cells and incubated at 37° C. for 2 hours. Plates were read on the Envision (Perkin Elmer) at 620 nm wavelength (OD620). In the luciferase assay, 5 μl of Quantiluc (Invivogen, Rep-qlc2) is added to white 384 well plates seeded with THP1 cells and read at 5 minutes on the Envision (Perkin Elmer) using a luminescence protocol (RLU). For both cell lines, 100% activation was determined by value (RLU) of THP-1 Dual STING cells stimulated with 100 μM cGAMP (Invivogen, cat #TLRL-NACGA23-5).

[2] = biological target: T1, STING WT: His-TVMV-S-hSTING(155-341)-H232R (Homo sapiens, UniProt Q86WV6, H232R); assay: STING HTRF Binding Assay, STING WT; details: 20 nM His-tagged STING cytoplasmic domain, 200 nM fluorescein-labeled cGAMP analog probe, one hour; read-out: HTRF Binding Assays IC50 (μM) STING WT
T1 construct: STING WT: His-TVMV-S-hSTING(155-341)-H232R
T1 sequence (Q86WV6 with tags, fused parts or gaps H232R): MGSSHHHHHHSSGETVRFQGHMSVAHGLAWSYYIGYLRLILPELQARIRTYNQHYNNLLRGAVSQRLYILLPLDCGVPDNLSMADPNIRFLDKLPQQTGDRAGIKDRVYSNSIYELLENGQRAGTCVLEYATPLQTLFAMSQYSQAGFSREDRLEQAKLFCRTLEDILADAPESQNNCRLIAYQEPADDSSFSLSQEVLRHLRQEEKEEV
Procedure: (§5) A time resolved FRET-based competition binding assay was used to assess test article binding to STING WT and STING AQ. His-tagged STING cytoplasmic domain (WT or AQ) at a concentration of 20 nM was incubated with 2.5 nM Tb-labeled anti-His antibody, test compound, and fluorescein-labeled cGAMP analog probe (BioLog cat. no. C195) at a concentration of 200 nM (STING WT) or 40 nM (STING AQ) in PBS containing 0.005% Tween-20 and 0.1% BSA for one hour. Fluorescence at 495 nm and 520 nm was measured using an EnVision microplate reader to quantify FRET between Tb-labeled anti-His antibody and fluorescein-labeled probe. Background was defined as the signal obtained in the absence of STING protein, and background subtracted FRET ratios were normalized to the maximum signal obtained in the absence of test compound. These values were converted to a percent inhibition. Percent inhibition was determined for test compounds at 11 concentrations. The IC50, defined as the concentration of competing test compound needed to reduce specific binding of the probe by 50%, was calculated using the 4 parameter logistic equation to fit the data

[3] = tested on: IRF pathway in THP1-Dual STING reporter cells; assay: STING THP1 Reporter Assay, IRF pathway (secreted Lucia luciferase); format: cell-based, human; details: 100% = 100 μM cGAMP
From the text: as §1, §2, §3, §4

[4] = biological target: T2, STING AQ: His-TVMV-S-hSTING(155-341)-G230A-R293Q (Homo sapiens, UniProt Q86WV6, G230A/H232R/R293Q); assay: STING HTRF Binding Assay, STING AQ; details: 20 nM His-tagged STING cytoplasmic domain, 40 nM fluorescein-labeled cGAMP analog probe, one hour; read-out: HTRF Binding Assays IC50 (μM) STING AQ
T2 construct: STING AQ: His-TVMV-S-hSTING(155-341)-G230A-R293Q
T2 sequence (Q86WV6 with tags, fused parts or gaps G230A/H232R/R293Q): as the sequence (Q86WV6 with tags, fused parts or gaps H232R) above, with G99A, R162Q counted along it
Procedure: as §5

[5] = Homo sapiens, THP1-Dual, 20 h, read-out: THP1 Reporter Assays EC50 (μM) NFkB, THP1-Dual cells, 10% human plasma, 20 hours, SEAP
[6] = Homo sapiens, THP1-Dual, 20 h, THP1-Dual cells, 10% human plasma, 20 hours, luciferase, read-out: THP1 Reporter Assays EC50 (μM) IRF3
[7] = Homo sapiens, THP1-Dual, 20 h, THP1-Dual cells, 10% human plasma, 20 hours, SEAP, read-out: THP1 Reporter Assays EC50 (μM) NFkB
[8] = Homo sapiens, THP1-Dual, 20 h, read-out: THP1 Reporter Assays EC50 (μM) IRF3, THP1-Dual cells, 10% human plasma, 20 hours, luciferase
[9] = THP1-Dual cells, 10% human plasma, 20 hours, SEAP, read-out: THP1 Reporter Assays EC50 (μM) NFkB
[10] = THP1-Dual cells, 10% human plasma, 20 hours, luciferase, read-out: THP1 Reporter Assays EC50 (μM) IRF3
[11] = read-out: THP1 Reporter Assays EC50 (μM) IRF3, THP1-Dual cells, 10% human plasma, 20 hours, luciferase
[12] = read-out: THP1 Reporter Assays EC50 (μM) NFkB, THP1-Dual cells, 10% human plasma, 20 hours, SEAP

SMILES | EC50 [1, 5] [µM] | IC50 [2] [µM] | EC50 [3, 6] [µM] | IC50 [4] [µM] | EC50 [1, 7] [µM] | EC50 [3, 8] [µM] | EC50 [1, 9] [µM] | EC50 [3, 10] [µM] | EC50 [3, 11] [µM] | EC50 [1, 12] [µM]
Nc1ncnc2c1ncn2[C@@H]1O[C@@H]2COP(=O)(O)O[C@H]3[C@@H](F)[C@H](n4cnc5c4ncn4ccnc54)O[C@@H]3COP(=O)(O)O[C@H]2[C@H]1O [Example 20] | 13.6 | 0.04 | 3.71 | 0.01 |  |  |  |  |  | 
Nc1ncnc2c1ncn2[C@@H]1O[C@@H]2COP(O)(=S)O[C@H]3[C@@H](F)[C@H](n4cnc5c4ncn4ncnc54)O[C@@H]3COP(O)(=S)O[C@H]2[C@H]1F (single isomer, unassigned) [Example 12-1] |  | 0.56 |  | 0.04 | 65.9 | 8.2 |  |  |  | 
NC(=O)c1cccc2c1nnn2[C@@H]1O[C@@H]2COP(=O)(S)O[C@H]3[C@@H](F)[C@H](n4cnc5c(N)ncnc54)O[C@@H]3COP(=O)(S)O[C@H]2[C@H]1F (single isomer, unassigned) [Example 4-1] |  | > 100 |  | 17.8 |  |  | > 100 | > 100 |  | 
NC(=O)c1cccc2c1nnn2[C@@H]1O[C@@H]2COP(=O)(O)O[C@H]3[C@@H](F)[C@H](n4cnc5c(N)ncnc54)O[C@@H]3COP(=O)(S)O[C@H]2[C@H]1F (single isomer, unassigned) [Example 8-1] |  | 64.6 | > 100 | 1.75 | > 100 |  |  |  |  | 
Nc1ncnc2c1ncn2[C@@H]1O[C@@H]2COP(=O)(S)O[C@H]3[C@@H](O)[C@H](n4cnc5c(=O)n6ccnc6[nH]c54)O[C@@H]3COP(=O)(S)O[C@H]2[C@H]1F (single isomer, unassigned) [Example 1-1] |  | 0.02 |  | 0.01 |  |  | 0.94 | 0.38 |  | 
Nc1ncnc2c1ncn2[C@@H]1O[C@@H]2COP(=O)(O)O[C@H]3[C@@H](O)[C@H](n4cnc5c4ncn4ncnc54)O[C@@H]3COP(=O)(O)O[C@H]2[C@H]1F [Example 11, (1S,6R,8R,9R,10R,15R,17R,18R)-8-(6-amino-9H-purin-9-yl)-9-fluoro-3,12,18-trihydroxy-17-{3H-[1,2,4]triazolo[3,2-f]purin-3-yl}-2,4,7,11,13,16-hexaoxa-3λ^5,12λ^5-diphosphatricyclo[13.3.0.0^6,10]octadecane-3,12-dione] | 16 | 0.23 |  |  |  | 8.35 |  |  |  | 
NC(=O)c1cccc2c1nnn2[C@@H]1O[C@@H]2COP(=O)(O)O[C@H]3[C@@H](F)[C@H](n4cnc5c(N)ncnc54)O[C@@H]3COP(=O)(S)O[C@H]2[C@H]1F (single isomer, unassigned) [Example 8-2] |  | 2.23 |  | 0.07 |  |  | > 100 | > 100 |  | 
Nc1nc2c(ncn2[C@@H]2O[C@@H]3COP(=O)(O)O[C@H]4[C@@H](O)[C@H](n5cnc6c5ncn5ccnc65)O[C@@H]4COP(=O)(S)O[C@H]3[C@H]2O)c(=O)[nH]1 (some centres unmarked) [Example 16] |  | 96 | > 100 | 5.65 | > 100 |  |  |  |  | 
NC(=O)c1cc([C@@H]2O[C@@H]3COP(=O)(S)O[C@H]4[C@@H](F)[C@H](n5cnc6c(N)ncnc65)O[C@@H]4COP(=O)(S)O[C@H]3[C@H]2O)[nH]n1 (single isomer, unassigned) [Example 6-4] |  | 3.03 |  | 0.19 |  |  | > 100 | > 100 |  | 
NC(=O)c1cc([C@@H]2O[C@@H]3COP(=O)(S)O[C@H]4[C@@H](F)[C@H](n5cnc6c(N)ncnc65)O[C@@H]4COP(=O)(S)O[C@H]3[C@H]2O)[nH]n1 (single isomer, unassigned) [Example 6-2] |  | 88.6 |  | 5.75 |  |  | > 100 | > 100 |  | 
NC(=O)c1cccc2c1nnn2[C@@H]1O[C@@H]2COP(=O)(O)O[C@H]3[C@@H](F)[C@H](n4cnc5c(N)ncnc54)O[C@@H]3COP(=O)(O)O[C@H]2[C@H]1F [Example 7, 1-[(1R,6R,8R,9R,10R,15R,17R,18R)-17-(6-amino-9H-purin-9-yl)-9,18-difluoro-3,12-dihydroxy-3,12-dioxo-2,4,7,11,13,16-hexaoxa-3λ^5,12λ^5-diphosphatricyclo[13.3.0.0^6,10]octadecan-8-yl]-1H-1,2,3-benzotriazole-4-carboxamide] | > 100 | 11.9 | > 100 | 0.31 |  |  |  |  |  | 
Nc1ncnc2c1ncn2[C@@H]1O[C@@H]2COP(=O)(S)O[C@H]3[C@@H](F)[C@H](n4cnc5c4ncn4ncnc54)O[C@@H]3COP(=O)(S)O[C@H]2[C@H]1F (single isomer, unassigned) [Example 12-2] |  | 0.01 |  | 0.002 |  |  | 2.64 |  | 0.2 | 
Nc1ncnc2c1ncn2[C@@H]1O[C@@H]2COP(=O)(S)O[C@H]3[C@@H](O)[C@H](n4nnc5c([N+](=O)[O-])cccc54)O[C@@H]3COP(=O)(O)O[C@H]2[C@H]1F (single isomer, unassigned) [Example 13-2] |  | 5.49 |  | 0.45 |  |  |  |  | > 100 | > 100
Nc1ncnc2c1ncn2[C@@H]1O[C@@H]2COP(=O)(S)O[C@H]3[C@@H](O)[C@H](n4cnc5c(=O)n6ccnc6[nH]c54)O[C@@H]3COP(=O)(S)O[C@H]2[C@H]1F (single isomer, unassigned) [Example 1-2] |  | 0.07 |  | 0.01 |  |  | 5.35 | 2.69 |  | 
NC(=O)c1cc([C@@H]2O[C@@H]3COP(=O)(S)O[C@H]4[C@@H](F)[C@H](n5cnc6c(N)ncnc65)O[C@@H]4COP(=O)(S)O[C@H]3[C@H]2O)[nH]n1 (single isomer, unassigned) [Example 6-1] |  | 5.58 | > 100 | 1.32 | > 100 |  |  |  |  | 
Nc1ncnc2c1ncn2[C@@H]1O[C@@H]2COP(=O)(S)O[C@H]3[C@@H](O)[C@H](n4cnc5c4ncn4ncnc54)O[C@@H]3COP(=O)(O)O[C@H]2[C@H]1F (single isomer, unassigned) [Example 10-2] |  | 0.05 |  |  |  |  |  |  | 3.69 | 8.99
